Assay results: patent publication US20250034196A1, “ESTER DERIVATIVES OF N4-HYDROXYCYTIDINE AND USE THEREOF” (priority 2021, published 2025)

Columns and labels:
[1] = in vivo; set-up: species or system Beagle Dogs; conditions: dog, po, 10 mg/kg; for AUC(0-inf): AUCINF of EX-1/NHC/CH2018; for AUC(0-t): AUClast of EX-1/NHC/CH2018; for Cmax: Cmax of EX-1/NHC/CH2018; for half-life: T1/2 of EX-1/NHC/CH2018; for Tmax: Tmax of EX-1/NHC/CH2018
Protocol: Example 174: Pharmacokinetic Study of EX-2 (CH2101), Molnupiravir (CH2017) and its Metabolite NHC (CH2018) Following a Single PO Administration of EX-2 (CH2101) or Molnupiravir (CH2017) in Male and Female Beagle Dogs
Both test compounds were prepared in 1% methyl cellulose (400 cps, SIGMA, SLCF9694) solution in purified water.
A total of 6 male+6 female Beagle Dogs, approximately 7-13 kg of bodyweight, were originally purchased from Marshall Biotechnology Co., Ltd. The animals were fasted overnight prior to dosing and food was re-provided after 4 hours post dosing.
The animals were restrained manually, and approximately 1 mL of blood at each time point was collected into pre-cooled EDTA-K2 tubes via cephalic or saphenous veins. Blood samples were centrifuged at 4° C. (4000 rpm. 5 min) to obtain plasma within 30 min after sample collection. All samples were stored at approximately −80° C. until analysis. The backup samples will be discarded after the in vivo experiment has been completed for two months unless requested.

[2] = Microsome stability; type: in vitro ADME, Monkey; conditions: monkey, microsomes, pH 7.4
Protocol: (§1) Preparation of Solutions: Stock solution (10 mM) of each of test compounds was prepared in DMSO. The stock solution for each compound was then diluted into 100 μM with acetonitrile.
(§2) Microsome Incubations: Incubation mixtures were prepared in a total volume of 200 μL with final component concentrations as follows: 0.1M PBS (pH 7.4), NADPH (2 mM) and liver microsomes (0.2 mg/mL) as well as test compound (1 μM) or Molnupiravir (1 μM) as a positive control, wherein the NADPH was added after a 5-min preincubation of all other components at 37° C. Pipette-mixed to achieve a homogenous suspension and immediately transferred 20 μL incubate as a 0 min sample to wells in a “Quenching” plate followed by adding 200 μL of acetonitrile with metolazone as IS and pipette-mixing. At 2, 5, 10, and 45 min, pipette-mixed the incubate and serially transfer samples of 20 μL incubate per time point to wells in a separate “Quenching” plate followed by adding 200 μL of acetonitrile with metolazone as IS and pipette-mixing.
(§3) Sample Analysis: The 96-well plate was centrifuged at 6000 g for 10 min. The supernatant was injected onto the LC-MS/MS system for analysis.

[3] = in vitro; type: in vitro ADME; conditions: microsomes; for half-life at 1 µM: pH 7.4
Protocol: as §1, §2, §3

[4] = in vitro; type: in vitro ADME; conditions: plasma
Protocol: as §1
Plasma Incubations: Plasma incubations were conducted in duplicate in 96-well plate at 37° C. Plasma was prewarmed in a total volume of 198 μL for 5 min at 37° C., then added 2 μL of 100 μM test compound into an incubation well containing plasma, pipette-mixed to achieve a homogenous suspension and immediately transferred 20 μL incubate as a 0 min sample to wells in a “Quenching” plate followed by adding 200 μL of acetonitrile with metolazone as internal standard (IS) and pipette-mixing. At 2, 5, 60, and 90 min, pipette-mixed the incubate and serially transfer samples of 20 μL incubate per time point to wells in a separate “Quenching” plate followed by adding 200 μL of acetonitrile with metolazone as IS and pipette-mixing.
as §3

[5] = tested on: SARS-CoV-2, Hongkong strain; type: in vivo, K18 hACE2 transgenic mice
[6] = Remdesivir 25 mpk SC twice daily

O=c1nc(NO)ccn1[C@@H]1O[C@H](CO)[C@@H](O)[C@H]1O [EX-1/NHC/CH2018, NHC]
AUC(0-inf) ([1]; both sexes, beagle): 9680 ng·h/mL
AUC(0-t) ([1]; both sexes, beagle): 9580 ng·h/mL
Cmax ([1]; both sexes, beagle): 4780 ng/mL
half-life ([1]; both sexes, beagle): 227 min
Tmax ([1]; both sexes, beagle): 52.5 min
AUCmale/female of EX-1/NHC/CH2018 ([1]; both, Beagle): 158%
AUCINF of EX-1/NHC/CH2018 ([1]; female, beagle): 7683 ng·h/mL
AUClast of EX-1/NHC/CH2018 ([1]; female, beagle): 7632 ng·h/mL
Cmax of EX-1/NHC/CH2018 ([1]; female, beagle): 3940 ng/mL
T1/2 of EX-1/NHC/CH2018 ([1]; female, beagle): 63.6 min
AUC(0-inf) ([1]; female, beagle): 7310 ng·h/mL
AUC(0-t) ([1]; female, beagle): 7220 ng·h/mL
Cmax ([1]; female, beagle): 4550 ng/mL
half-life ([1]; female, beagle): 76.8 min
Tmax ([1]; female, beagle): 60 min
AUCINF of EX-1/NHC/CH2018 ([1]; male, beagle): 11046 ng·h/mL
AUClast of EX-1/NHC/CH2018 ([1]; male, beagle): 10957 ng·h/mL
Cmax of EX-1/NHC/CH2018 ([1]; male, beagle): 5240 ng/mL
T1/2 of EX-1/NHC/CH2018 ([1]; male, beagle): 343 min
Tmax of EX-1/NHC/CH2018 ([1]; male, beagle): 30 min
AUC(0-inf) ([1]; male, beagle): 12700 ng·h/mL
AUC(0-t) ([1]; male, beagle): 12500 ng·h/mL
Cmax ([1]; male, beagle): 5380 ng/mL
half-life ([1]; male, beagle): 425 min
Tmax ([1]; male, beagle): 60 min

CC(C)C(=O)ONc1ccn([C@@H]2O[C@H](CO)[C@@H](O)[C@H]2O)c(=O)n1 [EX-3]
half-life at 1 µM [2]: 4.4 min
half-life at 1 µM ([3]; dog): 33.8 min
half-life at 1 µM ([3]; human): 13.5 min
half-life at 1 µM ([3]; mouse): 6.8 min
half-life at 1 µM ([3]; rat): 46.6 min
half-life at 1 µM ([4]; dog): 21.2 min
half-life at 1 µM ([4]; human): 2.8 min
half-life at 1 µM ([4]; monkey): 3.2 min
half-life at 1 µM ([4]; mouse): 0.6 min
half-life at 1 µM ([4]; rat): 25.9 min

O=C(ONc1ccn([C@@H]2O[C@H](CO)[C@@H](O)[C@H]2O)c(=O)n1)C1CC1 [EX-15]
half-life at 1 µM [2]: 25 min
half-life at 1 µM ([3]; dog): 132 min
half-life at 1 µM ([3]; human): 67.3 min
half-life at 1 µM ([3]; mouse): 15.4 min
T1/2 ([3]; rat): ∞
half-life at 1 µM ([4]; dog): 109 min
half-life at 1 µM ([4]; human): 5.8 min
half-life at 1 µM ([4]; monkey): 16.5 min
half-life at 1 µM ([4]; mouse): 5.2 min
half-life at 1 µM ([4]; rat): 88.9 min

COC(C)(C)C(=O)ONc1ccn([C@@H]2O[C@H](CO)[C@@H](O)[C@H]2O)c(=O)n1 [EX-53]
half-life at 1 µM [2]: 7.3 min
half-life at 1 µM ([3]; dog): 87.5 min
half-life at 1 µM ([3]; human): 86.6 min
half-life at 1 µM ([3]; mouse): 17.1 min
half-life at 1 µM ([3]; rat): 70.5 min
half-life at 1 µM ([4]; dog): 156 min
half-life at 1 µM ([4]; human): 4.8 min
half-life at 1 µM ([4]; monkey): 9.8 min
half-life at 1 µM ([4]; mouse): 3.1 min
half-life at 1 µM ([4]; rat): 94.3 min

CCC(CC)COC(=O)[C@H](C)N[P@](=O)(OC[C@H]1O[C@@](C#N)(c2ccc3c(N)ncnn23)[C@H](O)[C@@H]1O)Oc1ccccc1 [Remdesivir]
Survival proportions ([5]; 14-day study, twice daily days 0-6, CH2101 450 mg/kg PO, Remdesivir 25 mg/kg SC): 0%
Body weight loss observed from day [5, 6]: 2 days
Gross clinical symptoms appear from day [5, 6]: 6 days
Max clinical symptom score (mean value) [5, 6]: 2
Prolonged survival time ([5]; compared with vehicle group (group 1), Remdesivir 25 mg/kg SC): 20%
Virus titer in lung, comparison with Remdesivir group (mean difference) ([5]; day 5): 2.47
Virus titer in lung ([5]; day 5, plaque assay, mean, twice daily days 0-4, CH2101 450 mpk PO, Remdesivir 25 mpk SC): 5.11 Log 10 plaque#/g lung
Virus titer in lung, mean difference vs. group 1 (Vehicle group) ([5]; day 5, CH2101 450 mpk PO, Remdesivir 25 mpk SC): 0.83 Log
Body weight change ([5]; day 6, normalized to day 0, Remdesivir 25 mpk SC twice daily): −13.6%
Median survival time ([5]; twice daily days 0-6, CH2101 450 mg/kg PO, Remdesivir 25 mg/kg SC): 6 days
